Data reported in patent US20120142606A1, “TUMOR TARGETING PEPTIDES, THERAPEUTIC AND DIAGNOSTIC COMPOSITIONS COMPRESSING THE PEPTIDES” (priority 2009, published 2012).

Tests used:
[1] = tested on: MCF7 cells; assay: Peptide binding to MCF7 breast cancer cells by flow cytometry; conditions: 0.1-100 μg/ml peptide, 4° C., 20 minutes
Description: (§1) To assess peptide binding, MCF7 cells were incubated with increasing doses (0.1-100 μg/ml) of the BK-FITC peptide at 4° C. for 20 minutes. Cells were subsequently washed 4 times with PBS and analyzed by flow cytometry. […] Subsequently, we evaluated the specificity of the BK-peptide for breast cancer cells by incubating MCF7 cells in parallel with human peripheral blood mononuclear cells under the same conditions as mentioned above.
(§2) FIG. 2. […] MCF7 cells (left panel) and human peripheral blood mononuclear cells (PBMC) (right panel) were incubated with increasing doses of peptide for 20 min at 4° C. The cells were subsequently analyzed by flow cytometry for mean fluorescence intensity of FITC, depicted on the y-axis.

[2] = tested on: human peripheral blood mononuclear cells; assay: Peptide binding to peripheral blood mononuclear cells by flow cytometry (specificity); conditions: 0.1-100 μg/ml peptide, 4° C., 20 minutes
Description: as §1, §2

[3] = tested on: MCF7 cells; assay: Killing of MCF7 cells, propidium iodide staining and flow cytometry; assay type: cell-based; conditions: 50 μg/ml peptide, 24 h
Description: (§3) Next, we examined to what extent the peptide specifically kills MCF7 cells. White blood cells (WBCs) were used as a control for normal non-cancerous cells. WBCs were isolated from a healthy donor by ficoll hypaque gradient centrifugation. Red blood cells were removed using a red blood cell lysis buffer and the remaining WBCs were used for the experiment. MCF7 cells and WBCs were incubated with 50 μg/ml peptide or medium only for 24 h. Cells were collected, stained with propidium iodide (PI) and analyzed for apoptosis by flow cytometry (FIG. 3). The data was analyzed by gating on life PI negative cells which is depicted as % viable cells on the y-axis.

[4] = tested on: White blood cells (WBCs); assay: Killing of white blood cells (normal cell control), propidium iodide staining and flow cytometry; assay type: cell-based; conditions: 50 μg/ml peptide, 24 h, WBCs from a healthy donor
Description: as §3

Substance	binding to MCF7 cells, mean fluorescence intensity (MFI) of FITC [1]	binding to peripheral blood mononuclear cells, mean fluorescence intensity of FITC [2]	killing of MCF7 cells (% viable cells, PI negative) [3]	killing of white blood cells (% viable cells, PI negative) [4]
KLAKLAKKLAKLAK-GG-LTVXPWY (SEQ ID NO:9) conjugated to fluoresceinisothiocyanate (FITC) [BK1-FITC, BK1-peptide conjugated to fluoresceinisothiocyanate]	dose dependent increase in mean fluorescence intensity			
KLAKLAKKLAKLAK-GG-LTVXPWY [BK1-peptide]	binds to breast cancer cells	did not observe binding	kills MCF7	but not white blood cells
